{"source": "paper PMC5916808", "about": "(Journal of medicinal chemistry, 2017)", "key": {"[1]": {"conditions": "ref Jensen, Egebjerg, Bundgaard, unpublished data; cited from earlier work"}, "[2]": {"conditions": "cited from earlier work"}, "[3]": {"system": "AMPA or kainate receptors", "conditions": "cited from earlier work"}, "[4]": {"test": "Pharmacokinetics and brain penetration after IP dosing, LC/MS/MS", "assay_type": "in vivo, C57Bl/6 mice"}, "[5]": {"target": "GluK2 (Rattus norvegicus, UniProt P42260)", "sequence (P42260 32-908)": "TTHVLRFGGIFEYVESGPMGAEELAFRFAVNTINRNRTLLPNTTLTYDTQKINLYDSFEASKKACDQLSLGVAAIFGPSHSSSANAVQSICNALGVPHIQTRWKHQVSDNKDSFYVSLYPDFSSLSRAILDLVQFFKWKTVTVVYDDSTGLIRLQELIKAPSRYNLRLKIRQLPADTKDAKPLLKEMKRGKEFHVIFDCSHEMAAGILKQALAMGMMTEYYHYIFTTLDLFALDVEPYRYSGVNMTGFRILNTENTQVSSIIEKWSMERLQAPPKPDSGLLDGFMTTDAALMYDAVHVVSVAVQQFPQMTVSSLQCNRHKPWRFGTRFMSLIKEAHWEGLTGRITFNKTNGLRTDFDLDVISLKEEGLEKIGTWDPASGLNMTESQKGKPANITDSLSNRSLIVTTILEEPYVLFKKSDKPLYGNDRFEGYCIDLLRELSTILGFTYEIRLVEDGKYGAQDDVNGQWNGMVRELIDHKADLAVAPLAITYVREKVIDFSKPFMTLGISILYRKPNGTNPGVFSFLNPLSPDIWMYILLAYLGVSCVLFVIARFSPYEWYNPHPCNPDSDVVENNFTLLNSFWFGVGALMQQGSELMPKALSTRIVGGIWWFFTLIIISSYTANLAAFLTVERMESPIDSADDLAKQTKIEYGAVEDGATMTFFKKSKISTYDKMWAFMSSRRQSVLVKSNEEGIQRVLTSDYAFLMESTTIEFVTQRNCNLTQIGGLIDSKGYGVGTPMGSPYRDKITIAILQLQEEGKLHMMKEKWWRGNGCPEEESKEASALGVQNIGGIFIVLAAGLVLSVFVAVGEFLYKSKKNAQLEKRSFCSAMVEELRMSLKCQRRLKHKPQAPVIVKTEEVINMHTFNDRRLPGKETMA", "test": "Two-electrode voltage clamp, GluK2 homomeric receptors in Xenopus oocytes", "assay_type": "cell-based", "conditions": "30 μM compound co-applied with 100 μM glutamate and 30 μM glycine, n=9"}, "[6]": {"target": "T1, GluN1/GluN2C NMDA receptors (Rattus norvegicus, UniProt Q00961)", "T1 sequence (Q00961 20-1237, other chains not shown)": "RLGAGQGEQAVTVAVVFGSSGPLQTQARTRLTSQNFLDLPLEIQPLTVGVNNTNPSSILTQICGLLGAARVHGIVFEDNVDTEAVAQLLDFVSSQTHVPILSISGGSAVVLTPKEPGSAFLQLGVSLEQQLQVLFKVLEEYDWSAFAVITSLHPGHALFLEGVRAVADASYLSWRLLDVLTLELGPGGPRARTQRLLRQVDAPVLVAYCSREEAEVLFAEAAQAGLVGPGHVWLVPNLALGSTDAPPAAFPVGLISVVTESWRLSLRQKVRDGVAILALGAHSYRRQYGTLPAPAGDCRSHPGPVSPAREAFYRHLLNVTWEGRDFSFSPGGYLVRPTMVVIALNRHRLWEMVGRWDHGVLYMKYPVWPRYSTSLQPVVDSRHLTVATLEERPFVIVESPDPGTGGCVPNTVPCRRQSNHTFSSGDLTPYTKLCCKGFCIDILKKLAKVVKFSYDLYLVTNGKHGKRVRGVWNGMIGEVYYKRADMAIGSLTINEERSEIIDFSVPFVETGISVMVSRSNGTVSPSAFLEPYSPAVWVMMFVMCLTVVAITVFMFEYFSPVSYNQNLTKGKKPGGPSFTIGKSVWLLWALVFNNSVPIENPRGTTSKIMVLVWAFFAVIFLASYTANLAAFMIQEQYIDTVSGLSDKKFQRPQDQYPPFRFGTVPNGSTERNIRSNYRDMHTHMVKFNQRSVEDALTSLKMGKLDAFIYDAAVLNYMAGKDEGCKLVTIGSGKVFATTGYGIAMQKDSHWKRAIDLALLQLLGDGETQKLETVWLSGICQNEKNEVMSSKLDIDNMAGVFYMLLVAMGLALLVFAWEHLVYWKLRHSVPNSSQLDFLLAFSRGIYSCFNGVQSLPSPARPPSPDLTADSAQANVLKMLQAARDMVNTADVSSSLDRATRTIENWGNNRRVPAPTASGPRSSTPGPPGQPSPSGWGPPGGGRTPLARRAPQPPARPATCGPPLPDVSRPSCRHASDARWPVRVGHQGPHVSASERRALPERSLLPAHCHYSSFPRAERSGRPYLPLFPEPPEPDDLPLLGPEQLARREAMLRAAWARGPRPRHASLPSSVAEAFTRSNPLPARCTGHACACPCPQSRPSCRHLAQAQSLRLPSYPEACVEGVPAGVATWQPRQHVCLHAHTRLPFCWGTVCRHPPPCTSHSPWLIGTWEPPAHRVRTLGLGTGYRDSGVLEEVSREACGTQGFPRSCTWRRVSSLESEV", "assay_type": "cell-based"}, "[7]": {"target": "GluN1/GluN2B NMDA receptors (Rattus norvegicus, UniProt Q00960)", "sequence (Q00960 27-1482, other chains not shown)": "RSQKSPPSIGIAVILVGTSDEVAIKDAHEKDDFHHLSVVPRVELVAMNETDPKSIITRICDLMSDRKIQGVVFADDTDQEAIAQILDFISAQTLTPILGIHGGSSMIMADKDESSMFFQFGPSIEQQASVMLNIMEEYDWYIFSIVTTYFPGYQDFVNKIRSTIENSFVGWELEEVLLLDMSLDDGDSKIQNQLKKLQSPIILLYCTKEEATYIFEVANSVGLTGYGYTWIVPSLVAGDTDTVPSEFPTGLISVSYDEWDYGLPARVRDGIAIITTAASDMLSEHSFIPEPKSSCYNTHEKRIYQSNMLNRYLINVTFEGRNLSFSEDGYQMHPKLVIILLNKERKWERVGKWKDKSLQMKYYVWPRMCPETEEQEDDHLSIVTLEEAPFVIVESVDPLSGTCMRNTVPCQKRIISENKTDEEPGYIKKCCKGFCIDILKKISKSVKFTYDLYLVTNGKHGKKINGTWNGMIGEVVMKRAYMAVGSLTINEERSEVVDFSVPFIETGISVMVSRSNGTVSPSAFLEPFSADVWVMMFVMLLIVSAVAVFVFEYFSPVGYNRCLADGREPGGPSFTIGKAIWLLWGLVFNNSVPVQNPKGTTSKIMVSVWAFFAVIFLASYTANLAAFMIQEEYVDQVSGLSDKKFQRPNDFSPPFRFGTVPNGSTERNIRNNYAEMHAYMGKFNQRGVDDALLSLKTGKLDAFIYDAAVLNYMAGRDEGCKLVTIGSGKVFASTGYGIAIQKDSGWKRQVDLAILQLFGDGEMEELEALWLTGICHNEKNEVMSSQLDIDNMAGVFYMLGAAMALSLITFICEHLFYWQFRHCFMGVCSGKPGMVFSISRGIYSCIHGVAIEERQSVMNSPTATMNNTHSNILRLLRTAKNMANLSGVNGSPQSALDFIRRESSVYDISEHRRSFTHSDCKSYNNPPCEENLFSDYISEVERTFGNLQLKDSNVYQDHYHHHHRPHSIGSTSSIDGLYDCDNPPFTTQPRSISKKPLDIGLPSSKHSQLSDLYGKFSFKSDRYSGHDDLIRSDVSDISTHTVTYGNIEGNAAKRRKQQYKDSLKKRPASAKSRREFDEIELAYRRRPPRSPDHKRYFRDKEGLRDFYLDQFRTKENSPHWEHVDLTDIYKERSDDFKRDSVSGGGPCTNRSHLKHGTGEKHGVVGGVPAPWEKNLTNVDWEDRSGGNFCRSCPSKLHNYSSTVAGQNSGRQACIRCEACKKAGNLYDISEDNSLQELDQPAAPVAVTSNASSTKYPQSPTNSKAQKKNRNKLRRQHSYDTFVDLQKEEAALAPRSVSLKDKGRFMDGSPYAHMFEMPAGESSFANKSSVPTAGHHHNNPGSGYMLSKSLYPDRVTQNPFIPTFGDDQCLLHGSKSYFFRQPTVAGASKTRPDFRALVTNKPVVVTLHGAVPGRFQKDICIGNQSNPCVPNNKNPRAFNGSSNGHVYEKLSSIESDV", "assay_type": "cell-based", "conditions": "for fold increase in potency at GluN2B, thioamide compared to amide: 138 vs 2, 142 vs 97"}, "[8]": {"target": "T2, GluN1/GluN2D NMDA receptors (Rattus norvegicus, UniProt Q62645)", "T2 sequence (Q62645 28-1323, other chains not shown)": "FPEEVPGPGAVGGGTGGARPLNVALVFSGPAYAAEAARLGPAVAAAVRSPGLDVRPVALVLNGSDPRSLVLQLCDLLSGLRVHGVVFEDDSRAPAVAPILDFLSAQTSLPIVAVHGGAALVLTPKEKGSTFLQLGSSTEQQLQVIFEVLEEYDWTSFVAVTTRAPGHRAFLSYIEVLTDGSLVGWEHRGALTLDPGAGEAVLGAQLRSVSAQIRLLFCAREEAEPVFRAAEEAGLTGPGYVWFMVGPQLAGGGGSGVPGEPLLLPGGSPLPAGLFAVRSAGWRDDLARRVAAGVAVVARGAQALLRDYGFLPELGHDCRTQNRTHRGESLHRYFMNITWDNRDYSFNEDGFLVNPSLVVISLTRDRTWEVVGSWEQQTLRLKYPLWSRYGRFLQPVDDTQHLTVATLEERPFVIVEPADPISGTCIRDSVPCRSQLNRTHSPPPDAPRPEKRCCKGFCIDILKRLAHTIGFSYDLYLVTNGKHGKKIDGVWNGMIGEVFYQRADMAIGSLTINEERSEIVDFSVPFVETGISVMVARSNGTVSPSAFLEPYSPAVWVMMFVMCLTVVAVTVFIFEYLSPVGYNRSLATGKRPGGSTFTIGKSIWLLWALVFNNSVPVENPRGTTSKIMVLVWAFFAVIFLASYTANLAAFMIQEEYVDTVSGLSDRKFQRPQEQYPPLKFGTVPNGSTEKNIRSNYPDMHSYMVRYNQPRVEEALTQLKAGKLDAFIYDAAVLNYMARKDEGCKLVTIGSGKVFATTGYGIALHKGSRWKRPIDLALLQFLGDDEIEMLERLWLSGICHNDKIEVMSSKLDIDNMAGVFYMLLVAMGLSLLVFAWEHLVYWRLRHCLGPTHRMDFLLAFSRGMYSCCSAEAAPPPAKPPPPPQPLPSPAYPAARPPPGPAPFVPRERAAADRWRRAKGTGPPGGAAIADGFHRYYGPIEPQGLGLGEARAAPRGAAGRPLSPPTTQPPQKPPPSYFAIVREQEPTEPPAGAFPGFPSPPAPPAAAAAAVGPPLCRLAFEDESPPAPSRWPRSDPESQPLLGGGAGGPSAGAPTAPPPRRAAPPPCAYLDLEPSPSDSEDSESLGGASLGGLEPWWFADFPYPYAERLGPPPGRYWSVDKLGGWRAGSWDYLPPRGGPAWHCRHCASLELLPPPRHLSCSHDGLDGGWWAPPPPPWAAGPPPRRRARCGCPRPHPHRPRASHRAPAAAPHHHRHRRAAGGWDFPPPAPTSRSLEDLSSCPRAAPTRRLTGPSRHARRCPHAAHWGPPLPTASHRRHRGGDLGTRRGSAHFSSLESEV", "assay_type": "cell-based"}, "[9]": {"target": "T2, GluN1/GluN2D NMDA receptors", "conditions": "30 μM; previously published data; cited from earlier work"}, "[10]": {"target": "T1, GluN1/GluN2C NMDA receptors", "conditions": "30 μM; previously published data; cited from earlier work"}, "[11]": {"system": "GluN1/GluN2A, GluN1/GluN2B, GluN1/GluN2C, and GluN1/GluN2D NMDA receptors", "test": "Two-electrode voltage clamp, activity profile across GluN2 subunits", "assay_type": "cell-based, rat", "conditions": "potentiation of response to maximal glutamate and glycine"}, "[12]": {"test": "Solubility of test compound in oocyte recording solution", "assay_type": "physicochemical", "conditions": "aqueous buffer"}, "[13]": {"target": "GluN1/GluN2D NMDA receptors (Rattus norvegicus, UniProt P35439+Q62645)", "sequence (Q62645 28-1323, other chains not shown)": "as above", "assay_type": "cell-based"}, "[14]": {"system": "GluN1/GluN2B receptors", "conditions": "noncompetitive inhibitor; cited from earlier work"}, "[15]": {"conditions": "30 μM co-applied with either 30 μM glutamate or 10 μM glycine"}, "[16]": {"conditions": "percentage of the initial glutamate (100 μM) and glycine (30 μM) current"}}, "note": "Where “and” joins values, the source holds several entries; their conditions need not be identical. Identical values can stand only once."}
{"smiles": "COc1ccc(OCC2c3cc(OC)c(OC)cc3CCN2C(=O)c2cccc(Cl)c2)cc1", "note": "(stereo not shown) [CIQ]", "values": [{"measurement": "protein binding", "setting": "[1]", "result": "high protein binding"}, {"measurement": "brain penetration", "setting": "[2]", "result": "brain penetrant"}, {"measurement": "effect on AMPA or kainate receptors", "setting": "[3]", "result": "no effect on AMPA or kainate receptors"}]}
{"smiles": "COc1ccc(OCC2c3ccc(OC(C)C)cc3CCN2C(=O)c2cccc(Cl)c2)cc1", "note": "(stereo not shown) [Compound 2, (3-Chlorophenyl)(6-isopropoxy-1-((4-methoxyphenoxy)methyl)-3,4-dihydroisoquinolin-2(1H)-yl)methanone]", "values": [{"measurement": "brain concentration", "setting": "[4]; 10 mg/kg IP, at 15 and 30 min", "result": 0.303, "unit": "µg/mL"}, {"measurement": "peak plasma concentration", "setting": "[4]; 10 mg/kg IP, at 2 hours, n=3 mice", "result": "789 ng/mL and 1.7 μM"}, {"measurement": "behavioral observations post-dosing", "setting": "[4]; 10 mg/kg i.p.", "result": "No behavioral abnormalities were observed"}, {"measurement": "concentration at 4 h", "setting": "[4]; C57Bl/6, mouse, brain, intraperitoneal, 10 mg/kg", "result": 0.169, "unit": "µg/mL"}, {"measurement": "Tmax", "setting": "[4]; C57Bl/6, mouse, plasma, ip, 10 mg/kg", "result": 2, "unit": "h"}, {"measurement": "response as % of the control response to glutamate alone, GluK2", "setting": "[5]", "result": "96+9%"}, {"measurement": "agonist activity at GluN1/GluN2C", "setting": "[6]; [15]", "result": "no agonist activity"}, {"measurement": "agonist activity at GluN1/GluN2B", "setting": "[7]; [15]", "result": "no agonist activity"}, {"measurement": "agonist activity at GluN1/GluN2D", "setting": "[8]; [15]", "result": "no agonist activity"}]}
{"smiles": "COc1ccc(OCC2c3ccc(OC)cc3CCN2C(=O)c2cccc(Cl)c2)cc1", "note": "(stereo not shown) [Compound 86]", "values": [{"measurement": "I30μM / Icontrol (mean ± SEM, %) GluN2D", "setting": "[9]", "result": "215 ± 19", "unit": "%"}, {"measurement": "I30μM / Icontrol (mean ± SEM, %) GluN2C", "setting": "[10]", "result": "213 ± 13", "unit": "%"}]}
{"smiles": "CCOc1ccc(OCC2c3ccc(OC(C)C)cc3CCN2C(=O)c2ccccc2)cc1", "note": "(stereo not shown) [Compound 95, (1-((4-Ethoxyphenoxy)methyl)-6-isopropoxy-3,4-dihydroisoquinolin-2(1H)-yl)(phenyl)methanone]", "values": [{"measurement": "activity / subunit selectivity in words", "setting": "[11]", "result": "inactive at all subunits"}]}
{"smiles": "CCOc1ccc(OCC2c3ccc(OC(C)C)cc3CCN2C(=O)c2cccc(F)c2)cc1", "note": "(stereo not shown) [Compound 97, (1-((4-Ethoxyphenoxy)methyl)-6-isopropoxy-3,4-dihydroisoquinolin-2(1H)-yl)(3-fluorophenyl)methanone]", "values": [{"measurement": "activity / subunit selectivity in words", "setting": "[11]", "result": "active at only GluN2B"}]}
{"smiles": "CCOc1ccc(OCC2c3ccc(OC(C)C)cc3CCN2C(=O)c2cccc(-c3ccccc3)c2)cc1", "note": "(stereo not shown) [Compound 99, Biphenyl-3-yl(1-((4-ethoxyphenoxy)methyl)-6-isopropoxy-3,4-dihydroisoquinolin-2(1H)-yl)methanone]", "values": [{"measurement": "activity / subunit selectivity in words", "setting": "[11]", "result": "inactive"}, {"measurement": "solubility", "setting": "[12]", "result": "< 30", "unit": "µM"}]}
{"smiles": "CCOc1ccc(OCC2c3ccc(OC(C)C)cc3CCN2C(=O)c2cccc(C)c2)cc1", "note": "(stereo not shown) [Compound 100, (1-((4-Ethoxyphenoxy)methyl)-6-isopropoxy-3,4-dihydroisoquinolin-2(1H)-yl)(m-tolyl)methanone]", "values": [{"measurement": "activity / subunit selectivity in words", "setting": "[11]", "result": "inactive"}]}
{"smiles": "CCOc1ccc(OCC2c3ccc(OC(C)C)cc3CCN2C(=O)c2cccc(OC)c2)cc1", "note": "(stereo not shown) [Compound 101, (1-((4-Ethoxyphenoxy)methyl)-6-isopropoxy-3,4-dihydroisoquinolin-2(1H)-yl)(3-methoxyphenyl)methanone]", "values": [{"measurement": "activity / subunit selectivity in words", "setting": "[11]", "result": "inactive"}]}
{"smiles": "CCOc1ccc(OCC2c3ccc(OC(C)C)cc3CCN2C(=O)c2ccccc2F)cc1", "note": "(stereo not shown) [Compound 102, (1-((4-Ethoxyphenoxy)methyl)-6-isopropoxy-3,4-dihydroisoquinolin-2(1H)-yl)(2-fluorophenyl)methanone]", "values": [{"measurement": "activity / subunit selectivity in words", "setting": "[11]", "result": "complete loss of activity"}]}
{"smiles": "CCOc1ccc(OCC2c3ccc(OC(C)C)cc3CCN2C(=O)c2ccccc2Cl)cc1", "note": "(stereo not shown) [Compound 103, (2-Chlorophenyl)(1-((4-ethoxyphenoxy)methyl)-6-isopropoxy-3,4-dihydroisoquinolin-2(1H)-yl)methanone]", "values": [{"measurement": "activity / subunit selectivity in words", "setting": "[11]", "result": "complete loss of activity"}]}
{"smiles": "CCOc1ccc(OCC2c3ccc(OC(C)C)cc3CCN2C(=O)c2ccc(F)cc2)cc1", "note": "(stereo not shown) [Compound 104, (1-((4-Ethoxyphenoxy)methyl)-6-isopropoxy-3,4-dihydroisoquinolin-2(1H)-yl)(4-fluorophenyl)methanone]", "values": [{"measurement": "activity / subunit selectivity in words", "setting": "[11]", "result": "complete loss of activity"}]}
{"smiles": "CCOc1ccc(OCC2c3ccc(OC(C)C)cc3CCN2C(=O)c2ccc(Cl)cc2)cc1", "note": "(stereo not shown) [Compound 105, (4-Chlorophenyl)(1-((4-ethoxyphenoxy)methyl)-6-isopropoxy-3,4-dihydroisoquinolin-2(1H)-yl)methanone]", "values": [{"measurement": "activity / subunit selectivity in words", "setting": "[11]", "result": "complete loss of activity"}]}
{"smiles": "CCOc1ccc(OCC2c3ccc(OC(C)C)cc3CCN2C(=O)c2ccc(F)c(F)c2)cc1", "note": "(stereo not shown) [Compound 106, (3,4-Difluorophenyl)(1-((4-ethoxyphenoxy)methyl)-6-isopropoxy-3,4-dihydroisoquinolin-2(1H)-yl)methanone]", "values": [{"measurement": "activity / subunit selectivity in words", "setting": "[11]", "result": "active"}]}
{"smiles": "CCOc1ccc(OCC2c3ccc(OC(C)C)cc3CCN2C(=O)c2ccc(Cl)c(Cl)c2)cc1", "note": "(stereo not shown) [Compound 107, (3,4-Dichlorophenyl)(1-((4-ethoxyphenoxy)methyl)-6-isopropoxy-3,4-dihydroisoquinolin-2(1H)-yl)methanone]", "values": [{"measurement": "activity / subunit selectivity in words", "setting": "[11]", "result": "active"}, {"measurement": "solubility", "setting": "[12]", "result": "< 10", "unit": "µM"}]}
{"smiles": "CCOc1ccc(OCC2c3ccc(OC(C)C)cc3CCN2C(=O)c2ccc(F)c(Cl)c2)cc1", "note": "(stereo not shown) [Compound 108, (3-Chloro-4-fluorophenyl)(1-((4-ethoxyphenoxy)methyl)-6-isopropoxy-3,4-dihydroisoquinolin-2(1H)-yl)methanone]", "values": [{"measurement": "activity / subunit selectivity in words", "setting": "[11]", "result": "active"}]}
{"smiles": "CCOc1ccc(OCC2c3ccc(OC(C)C)cc3CCN2C(=O)c2cc(Cl)cc(Cl)c2)cc1", "note": "(stereo not shown) [Compound 109]", "values": [{"measurement": "solubility", "setting": "[12]", "result": "< 30", "unit": "µM"}]}
{"smiles": "COc1ccccc1OCC1c2ccc(OC(C)C)cc2CCN1C(=O)c1cccc(Cl)c1", "note": "(stereo not shown) [Compound 111, (3-Chlorophenyl)(6-isopropoxy-1-((2-methoxyphenoxy)methyl)-3,4-dihydroisoquinolin-2(1H)-yl)methanone]", "values": [{"measurement": "activity / subunit selectivity in words", "setting": "[11]", "result": "all activity was lost"}]}
{"smiles": "CC(C)Oc1ccc(OCC2c3ccc(OC(C)C)cc3CCN2C(=O)c2cccc(Cl)c2)cc1", "note": "(stereo not shown) [Compound 113, (3-Chlorophenyl)(6-isopropoxy-1-((4-isopropoxyphenoxy)methyl)-3,4-dihydroisoquinolin-2(1H)-yl)methanone]", "values": [{"measurement": "activity / subunit selectivity in words", "setting": "[11]", "result": "moderately GluN2B-selective"}]}
{"smiles": "COc1ccc(OCC2c3ccc(OC(C)C)cc3CCN2C(=O)c2cccc(F)c2)cc1", "note": "(stereo not shown) [Compound 114, (3-Fluorophenyl)(6-isopropoxy-1-((4-methoxyphenoxy)methyl)-3,4-dihydroisoquinolin-2(1H)-yl)methanone]", "values": [{"measurement": "fitted maximum response GluN2B", "setting": "[7]; [16]", "result": 391, "unit": "%"}, {"measurement": "EC50", "setting": "[13]", "result": 11, "unit": "µM"}, {"measurement": "fitted maximum response GluN2D", "setting": "[8]; [16]", "result": 493, "unit": "%"}]}
{"smiles": "COc1ccc(OCC2c3ccc(OC(C)C)cc3CCN2C(=S)c2cccc(Cl)c2)cc1", "note": "(stereo not shown) [Compound 138, (3-Chlorophenyl)(6-isopropoxy-1-((4-methoxyphenoxy)methyl)-3,4-dihydroisoquinolin-2(1H)-yl)methanethione]", "values": [{"measurement": "fold increase in potency at GluN2C, thioamide compared to amide", "setting": "[6]; 138 vs 2", "result": "~4", "unit": "fold"}, {"measurement": "fold increase in potency at GluN2B, thioamide compared to amide", "setting": "[7]", "result": "~10", "unit": "fold"}, {"measurement": "fold increase in potency at GluN2D, thioamide compared to amide", "setting": "[8]; 138 vs 2", "result": "~10", "unit": "fold"}]}
{"smiles": "CCOc1ccc(OCC2c3ccc(OC(C)C)cc3CCN2C(=S)c2cccc(F)c2)cc1", "note": "(stereo not shown) [Compound 142, (1-((4-Ethoxyphenoxy)methyl)-6-isopropoxy-3,4-dihydroisoquinolin-2(1H)-yl)(3-fluorophenyl)methanethione]", "values": [{"measurement": "fold increase in potency at GluN2B, thioamide compared to amide", "setting": "[7]", "result": 13, "unit": "fold"}]}
{"smiles": "CCOc1ccc(OC[C@H]2c3ccc(OC(C)C)cc3CCN2C(=S)c2cccc(F)c2)cc1", "note": "[R-(+)-142, (R)-(1-((4-Ethoxyphenoxy)methyl)-6-isopropoxy-3,4-dihydroisoquinolin-2(1H)-yl)(3-fluorophenyl)methanethione]", "values": [{"measurement": "activity / subunit selectivity in words", "setting": "[11]", "result": "no detectable potentiation of any NMDA receptor subunit combinations"}]}
{"smiles": "CC(C(O)c1ccc(O)cc1)N1CCC(Cc2ccccc2)CC1", "note": "(stereo not shown) [ifenprodil]", "values": [{"measurement": "fold more potent at GluN2B-containing receptors compared to GluN2A, GluN2C, or GluN2D", "setting": "[14]", "result": "> 100", "unit": "fold"}]}
